Assay [1] has as its system diabetic rabbits. The note with it: cited from earlier work.
For assay [2], the system named is diabetic rabbits. The experiment in a line: Comparison of Menthi, trigonelline and tolbutamide on glucose tolerance. The note with it: 100 mg/kg/day for 3 days. It counts as in vivo, rabbit. As for the experimental part: The antidiabetic activity of GII (Menthi) and the alkaloid trigonelline, which can be isolated from fenugreek seeds, were compared. Diabetic rabbits were administered the same dose (100 mg/kg/day) daily for 3 days. The activity of these two was also compared with a standard drug tolbutamide all at the same dosage schedule of 100 mg/Kg/day for 3 days.

The conditions of assay [3]: reported by Mishinsky; cited from earlier work.

We go through three compounds from US7815946B1, “Anti-diabetic and cholesterol lowering preparation from fenugreek seeds” (priority 2001, dated 2010).

For fenugreekine, in the assay on diabetic rabbits [1], the “blood glucose during GTT” value is “could not lower blood glucose”.
Take `CCCCNC(=O)NS(=O)(=O)c1ccc(C)cc1` [Tolbutamide, tolbutamide]: the “% Decrease in Blood Glucose Level at 2.5 Hours in GTT” value in the assay on diabetic rabbits [2] is 25%.
As for `C[n+]1cccc(C(=O)[O-])c1` [Trigonelline, trigonelline], the “% Decrease in Blood Glucose Level at 2.5 Hours in GTT” value in the assay on diabetic rabbits [2] was 16%. For the same compound, the hypoglycemic activity result in assay [3] was “only mild and transient hypoglycemic activity”.
